According to US11370773B1, “Inhibiting human integrin (alpha-4) (beta-7)” (Morphic Therapeutic, Inc., priority 2019, dated 2022):

Target: T1, α4β7 (Homo sapiens, UniProt P13612+P26010)
T1 construct: α4β7 expressing cells (RPMI-8866); endogenous in cells; host or cells: RPMI 8866
T1 sequence (P13612 34-1032): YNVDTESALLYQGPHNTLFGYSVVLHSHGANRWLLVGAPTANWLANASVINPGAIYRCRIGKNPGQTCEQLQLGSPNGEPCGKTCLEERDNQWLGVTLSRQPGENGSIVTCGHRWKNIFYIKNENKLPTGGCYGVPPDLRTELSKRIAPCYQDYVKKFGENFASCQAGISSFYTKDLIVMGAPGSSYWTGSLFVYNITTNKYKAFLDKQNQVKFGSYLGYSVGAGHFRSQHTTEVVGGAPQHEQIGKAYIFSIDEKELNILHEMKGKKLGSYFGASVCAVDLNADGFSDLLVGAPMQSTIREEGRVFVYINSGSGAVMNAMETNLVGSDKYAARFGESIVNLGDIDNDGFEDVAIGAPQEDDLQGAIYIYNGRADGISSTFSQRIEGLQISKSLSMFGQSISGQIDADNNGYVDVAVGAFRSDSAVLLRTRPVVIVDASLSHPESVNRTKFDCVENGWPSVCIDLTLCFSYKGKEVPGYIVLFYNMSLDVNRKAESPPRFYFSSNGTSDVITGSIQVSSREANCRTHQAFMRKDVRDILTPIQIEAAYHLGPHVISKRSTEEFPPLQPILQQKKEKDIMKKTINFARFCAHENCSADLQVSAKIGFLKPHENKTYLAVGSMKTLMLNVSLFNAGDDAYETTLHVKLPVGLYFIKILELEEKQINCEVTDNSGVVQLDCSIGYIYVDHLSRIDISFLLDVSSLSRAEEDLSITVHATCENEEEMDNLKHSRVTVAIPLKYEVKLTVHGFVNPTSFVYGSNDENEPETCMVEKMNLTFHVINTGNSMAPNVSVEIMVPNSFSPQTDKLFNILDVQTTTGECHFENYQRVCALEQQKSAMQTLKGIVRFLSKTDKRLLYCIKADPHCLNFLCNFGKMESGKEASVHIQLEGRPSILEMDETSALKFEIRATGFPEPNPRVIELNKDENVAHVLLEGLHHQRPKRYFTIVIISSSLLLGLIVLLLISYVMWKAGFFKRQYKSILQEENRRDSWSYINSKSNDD
T1 sequence (P26010 20-798): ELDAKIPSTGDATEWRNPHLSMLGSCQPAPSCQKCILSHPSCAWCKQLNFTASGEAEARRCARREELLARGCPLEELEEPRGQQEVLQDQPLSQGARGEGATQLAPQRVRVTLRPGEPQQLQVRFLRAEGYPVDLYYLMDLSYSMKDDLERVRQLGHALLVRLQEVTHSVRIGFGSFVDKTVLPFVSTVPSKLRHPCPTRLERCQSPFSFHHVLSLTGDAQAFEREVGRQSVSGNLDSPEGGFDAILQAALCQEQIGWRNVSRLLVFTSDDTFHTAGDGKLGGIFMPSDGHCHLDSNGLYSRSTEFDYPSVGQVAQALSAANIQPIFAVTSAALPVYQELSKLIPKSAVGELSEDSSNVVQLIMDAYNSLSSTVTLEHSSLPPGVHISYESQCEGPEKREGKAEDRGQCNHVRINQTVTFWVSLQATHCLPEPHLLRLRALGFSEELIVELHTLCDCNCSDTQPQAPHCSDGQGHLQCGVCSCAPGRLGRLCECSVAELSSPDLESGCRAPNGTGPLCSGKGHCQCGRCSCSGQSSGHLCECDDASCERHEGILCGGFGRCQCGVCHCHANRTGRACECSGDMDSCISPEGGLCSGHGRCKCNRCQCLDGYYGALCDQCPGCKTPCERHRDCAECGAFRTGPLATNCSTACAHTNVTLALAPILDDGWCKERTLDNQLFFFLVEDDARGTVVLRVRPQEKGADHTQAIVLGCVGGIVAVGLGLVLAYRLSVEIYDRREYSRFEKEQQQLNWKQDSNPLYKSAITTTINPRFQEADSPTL
Assay: Cell-based ligand binding assay (LBA), RPMI 8866 cells in competition with soluble MAdCAM-1-Fc
Conditions: MAdCAM-1-Fc Dylight 650, flow cytometry, read-out: LB Assay (Example 6) IC50
Procedure: Three in vitro assays were used to examine the α4β7 mechanistic process used by cells: 1) ligand:receptor affinity, 2) the avidity of those interactions on a cell's surface, and 3) how those interactions fare under an imposing force. In Example 5, a Fluorescence Polarization (FP) assay is used to measure compound activity through binding competition with the fluorescein-labeled peptide. In Example 6, the potency of compounds against α4β7 is measured in the cell-based ligand binding assay (LBA), using RPMI 8866 cells incubated with the compound samples in competition with soluble MAdCAM-1 ligand. In Example 7, activity of compounds is evaluated in a cell adhesion assay that mechanistically tests what occurs in vivo when trafficking cells utilize α4β7 to adhere to MAdCAM-1 expressing HEVs of the gut during the extravasation process. In the cell adhesion assay of Example 7, a MAdCAM1-(Fc) is coated on plastic, and α4β7 expressing cells (RPMI-8866) are allowed to adhere to the coated surface in the presence of the test compounds. Next, the force of washing with buffer is applied to cells thereby testing the strength of that adhesion. Unattached cells are removed and the remaining adherent cells are quantified.
5 ul of 33 nM MAdCAM-1-Fc fluorescently labeled with Dylight 650 in 50 mM HEPES pH 7.3, 150 mM sodium chloride, and 1% bovine serum albumin was added to the cells. The samples were incubated for 45 minutes at room temperature, fixed with 0.8% formaldehyde for 30 minutes at room temperature, and washed with 50 mM Tris pH 7.5, 150 mM NaCl, 1 mM EDTA, and 1% bovine serum albumin. Fluorescence intensity for each cell was measured via flow cytometry. Dead cells were excluded from further analysis based on staining with the 780 fixable viability dye. Median fluorescence intensity for Dylight 650 was determined for each sample and concentration-response curves were analyzed for IC50 values using 4-parameter non-linear regression analysis.

Row | IC50 | Structure (SMILES)
1 | 10 to 500 nM | Cc1cc(F)c(C)c(C)c1-c1cc(C(F)(F)F)c(F)c([C@H](CC(=O)O)NC(=O)[C@H](CC(C)C)n2cc(CCN3CCC3)c(C(F)(F)F)cc2=O)c1F [KT-P2, (3S)-3-(2-(5-(2-(azetidin-1-yl)ethyl)-2-oxo-4-(trifluoromethyl)pyridin-1(2H)-yl)-4-methylpentanamido)-3-(2,4,4′-trifluoro-2′,3′,6′-trimethyl-5-(trifluoromethyl)-[1,1′-biphenyl]-3-yl)propanoic Acid]
2 | 10 to 500 nM | Cc1cc(C2CC2)cc(C)c1-c1cc(C(F)(F)F)c(F)c([C@H](CC(=O)O)NC(=O)[C@H](CC(C)C)n2cc(CCCN(C)C)c(C(F)(F)F)cc2=O)c1F [HU-P2, (3S)-3-(4′-cyclopropyl-2,4-difluoro-2′,6′-dimethyl-5-(trifluoromethyl)-[1,1′-biphenyl]-3-yl)-3-(2-(5-(3-(dimethylamino)propyl)-2-oxo-4-(trifluoromethyl)pyridin-1(2H)-yl)-4-methylpentanamido)propanoic Acid]
3 | 10 to 500 nM | Cc1cc(C)c(-c2cc(C)c(F)c([C@H](CC(=O)O)NC(=O)[C@H](CC(C)C)n3cc(CCCN(C)C)c(C(F)(F)F)cc3=O)c2F)c(C)c1F [IW-P2, (3S)-3-(2-(5-(3-(dimethylamino)propyl)-2-oxo-4-(trifluoromethyl)pyridin-1(2H)-yl)-4-methylpentanamido)-3-(2,3′,4-trifluoro-2′,4′,5,6′-tetramethyl-[1,1′-biphenyl]-3-yl)propanoic Acid]
4 | ≤ 10 nM | Cc1cc(C)c(-c2cc(C3CC3)c(F)c([C@H](CC(=O)O)NC(=O)[C@H](CC(C)C)n3cc(CCN4CCC4)c(C(F)(F)F)cc3=O)c2F)c(C)c1 [HM-P2, (3S)-3-(2-(5-(2-(azetidin-1-yl)ethyl)-2-oxo-4-(trifluoromethyl)pyridin-1(2H)-yl)-4-methylpentanamido)-3-(5-cyclopropyl-2,4-difluoro-2′,4′,6′-trimethylbiphenyl-3-yl)propanoic Acid]
5 | ≤ 10 nM | Cc1cc(F)cc(C)c1-c1cc(C(F)(F)F)c(F)c([C@H](CC(=O)O)NC(=O)[C@H](CC(C)C)n2cc(CCCN(C)C)c(C(F)(F)F)cc2=O)c1F [HW-P2, (3S)-3-(2-(5-(3-(dimethylamino)propyl)-2-oxo-4-(trifluoromethyl)pyridin-1(2H)-yl)-4-methylpentanamido)-3-(2,4,4′-trifluoro-2′,6′-dimethyl-5-(trifluoromethyl)-[1,1′-biphenyl]-3-yl)propanoic Acid]
6 | ≤ 10 nM | Cc1cc(-c2c(C)cc(F)cc2C)cc([C@H](CC(=O)O)NC(=O)[C@H](CC(C)C)n2cc(CCN(C)C)cc(C(F)F)c2=O)c1F [I-P2, (3S)-3-(4,4′-difluoro-2′,5,6′-trimethyl-[1,1′-biphenyl]-3-yl)-3-(2-(3-(difluoromethyl)-5-(2-(dimethylamino)ethyl)-2-oxopyridin-1(2H)-yl)-4-methylpentanamido)propanoic Acid]
7 | ≤ 10 nM | Cc1ccn([C@@H](NC(C)C)C(=O)N[C@@H](CC(=O)O)c2cncc(-c3c(C)cccc3C)c2)c(=O)c1 [Example C-7, reference compound]
8 | 10 to 500 nM | Cc1cc(C)c(-c2cc(C(F)(F)F)c(F)c([C@H](CC(=O)O)NC(=O)[C@H](CC(C)C)n3cc(CCCN(C)C)c(C(F)(F)F)cc3=O)c2F)c(C)c1 [HZ-P2, (3S)-3-(2,4-difluoro-2′,4′,6′-trimethyl-5-(trifluoromethyl)biphenyl-3-yl)-3-(2-(5-(3-(dimethylamino)propyl)-2-oxo-4-(trifluoromethyl)pyridin-1(2H)-yl)-4-methylpentanamido)propanoic Acid]
9 | ≤ 10 nM | Cc1cc(-c2c(C)ccc(F)c2C)cc([C@H](CC(=O)O)NC(=O)C(CC(C)C)n2cc(CCN3CCC3)c(C(F)(F)F)cc2=O)c1F (single isomer, unassigned) [AF-P2]
10 | 10 to 500 nM | Cc1cc(C)c(-c2cc(C(F)(F)F)c(F)c([C@H](CC(=O)O)NC(=O)[C@H](CC(C)C)n3cc(CCN4CCC4)c(C(F)(F)F)cc3=O)c2F)c(C)c1 [IG-P2, (3S)-3-(2-(5-(2-(azetidin-1-yl)ethyl)-2-oxo-4-(trifluoromethyl)pyridin-1(2H)-yl)-4-methylpentanamido)-3-(2,4-difluoro-2′,4′,6′-trimethyl-5-(trifluoromethyl)biphenyl-3-yl)propanoic Acid]
11 | 10 to 500 nM | Cc1ccn([C@@H](CC(C)C)C(=O)N[C@H](CC(=O)O)c2cncc(-c3c(C)cccc3C)c2)c(=O)c1 [Example C-28, reference compound]
12 | ≤ 10 nM | Cc1ccc(F)c(C)c1-c1cc(C2CC2)c(F)c([C@H](CC(=O)O)NC(=O)[C@H](CC(C)C)n2cc(CCN3CCC3)c(C(F)(F)F)cc2=O)c1F [HH-P2, (3S)-3-(2-(5-(2-(azetidin-1-yl)ethyl)-2-oxo-4-(trifluoromethyl)pyridin-1(2H)-yl)-4-methylpentanamido)-3-(5-cyclopropyl-2,3′,4-trifluoro-2′,6′-dimethyl-[1,1′-biphenyl]-3-yl)propanoic Acid]
13 | 10 to 500 nM | Cc1cc(C)c(-c2cc(C(F)(F)F)c(F)c([C@H](CC(=O)O)NC(=O)[C@H](CC(C)C)n3cc(CCN(C)C)c(C(F)(F)F)cc3=O)c2F)c(C)c1 [IF-P2, (3S)-3-(2,4-difluoro-2′,4′,6′-trimethyl-5-(trifluoromethyl)-[1,1′-biphenyl]-3-yl)-3-(2-(5-(2-(dimethylamino)ethyl)-2-oxo-4-(trifluoromethyl)pyridin-1(2H)-yl)-4-methylpentanamido)propanoic Acid]
